From patent publication US20030202977A1, “Treatment of osteoarthritis” (New York University, priority 1998, published 2003)
Marks after values point to notes of the source that are not given here. Blank lines part the entries; values can stand above or below the molecule they belong to.

Tests used:
[1] = tested on: human osteoarthritis-affected cartilage; experiment: Osteoarthritis-explant assay: release of inflammatory mediators from cartilage organ cultures; type: cell-based; settings: for Effect on NO production/accumulation / Effect on PGE2 production: osteoarthritis-affected cartilage; for Effect on NO production/accumulation: compared to control cartilage; for Nitrite / PGE2: per 100 mg cartilage, 72 hours post stimulation, mean ± S.D., n=3; for Nitrite: JBS5 0.5 μg/ml, αvβ3 Abs 5 μg/ml, L-NMMA 500 μM, IL-1β 1 ng/ml, RGD or RGE 1 mg/ml, control 1.2 ± 0.2; for PGE2: control 13.1 ± 0.2
Source text: ELISA kits for IL-1β, IL-6 and IL-8 were purchased from R and D (Minneapolis, Minn.). Cyclic RGD and RGE peptides were procured form Bachem Biosciences, Inc. (King of Prussia, Pa.). Anti-αvβ3 (JBS5) and anti-3 (LM609) were purchased from Chemicon International (Temecula, Calif.). Another anti-αvβ3 antibody (mAb13) was a generous gift from Dr. Yamada (NIH, Bethesda, Md.).
Cartilage slices were taken from the knees of patients who had been diagnosed with advanced osteoarthritis, ages 50-70 years, who were undergoing knee replacement surgery. Non-arthritic knee cartilage, normal control, ages 20-70 years, was obtained from patients with fractures or from accident victims after knee amputation.
Knee articular cartilage from osteoarthritis patients or normal individuals was cut into 3 mm discs, and 4-6 discs were placed (triplicate or quadruplicate) into a 24-well plate containing 2 ml F-12 medium+0.1% human albumin in the presence or absence of anti-αvβ3 (JBS5) or anti-3 (LM609) antibodies along with various modulators, as previously described by Amin et al (1995 and 1997).
(§1) NO production was measured by estimating the stable NO metabolite, nitrite, in condition medium by modified Griess reaction, Gilliam et al (1993). PGE2 was analyzed from supernatant by RIA, Amin et al (1997).
OA-affected cartilage was incubated in the medium with various modulators: 0.5 μg/ml of α5β1 (JBS5), 5 μg/ml αvβ3 Abs, L-NMMA (500 μM), IL-1β (1 ng/ml), 1 mg/ml of RGD or RGE. The accumulation of IL-1β, IL-8, IL-6, nitrite and PGE2 were estimated 72 hours post stimulation. Data represents±S.D. where n=3. The P values described are compared with the (control) unstimulated OA-affected cartilage. The data represent one of the two similar experiments.

chondrocytes = experiment: Nitric oxide versus PGE2 production in chondrocytes; type: cell-based
[2] = tested on: primary bovine chondrocytes; experiment: NO and PGE2 production in primary bovine chondrocytes; type: cell-based
Description: Bovine chondrocytes were seeded in 24 well plates at a density of 0.5×10^6 cells/well in 2 ml medium. After 24 hours post-seeding, the cells were treated with either 50 ng of JBS5 monoclonal antibody or 1 ng/ml IL-1β alone and in the presence and absence of 0.5 μg/ml of sIL-1RII for 72 hours. NO and PGE2 were estimated as described in Materials and Methods. The data present one of the two similar experiments. Data represent mean±s.d. value. The p values described are compared with IL-l (*) or anti-α5β1 monoclonal antibody (**); *p≦0.01, **p≦0.01.
Bovine chondrocytes were seeded in 24 well plates and stimulated with 1 ng/ml Il-1β, 100 μg/ml LPS, IL-1β+LPS+TNFα and anti-α5β1 monoclonal antibody in the presence or absence of 5 μg/ml anti-αvβ3. The accumulation of NO and PGE2 was estimated at the end of 72 hours. The data represent one of the two similar experiments the data represent mean±s.d. value.
Bovine chondrocytes were isolated as previous described by Attur et al 1998. Briefly, cartilage slices from bovine cartilage were finely minced and digested sequentially with 0.2% testicular hyaluronidase for five minutes at 37° C., and 0.2% collagenase for 1-2 hours at 37° C. After being strained through sterile nylon mesh, the cells were centrifuged at 1200×g for ten minutes. The cell pellets were washed twice with Ham's F-12 medium, followed by resuspension and centrifuging at 1000×g for ten minutes. Finally, the pellets were suspended in complete F-12 medium before being plated to flasks.
as §1

[3] = molecular target: α5β1 integrin of human cartilage chondrocytes (human) (UniProt P08648); experiment: cell-based or functional assay
UniProt P08648, sequence (P08648 42-1049, chain 1 of 2): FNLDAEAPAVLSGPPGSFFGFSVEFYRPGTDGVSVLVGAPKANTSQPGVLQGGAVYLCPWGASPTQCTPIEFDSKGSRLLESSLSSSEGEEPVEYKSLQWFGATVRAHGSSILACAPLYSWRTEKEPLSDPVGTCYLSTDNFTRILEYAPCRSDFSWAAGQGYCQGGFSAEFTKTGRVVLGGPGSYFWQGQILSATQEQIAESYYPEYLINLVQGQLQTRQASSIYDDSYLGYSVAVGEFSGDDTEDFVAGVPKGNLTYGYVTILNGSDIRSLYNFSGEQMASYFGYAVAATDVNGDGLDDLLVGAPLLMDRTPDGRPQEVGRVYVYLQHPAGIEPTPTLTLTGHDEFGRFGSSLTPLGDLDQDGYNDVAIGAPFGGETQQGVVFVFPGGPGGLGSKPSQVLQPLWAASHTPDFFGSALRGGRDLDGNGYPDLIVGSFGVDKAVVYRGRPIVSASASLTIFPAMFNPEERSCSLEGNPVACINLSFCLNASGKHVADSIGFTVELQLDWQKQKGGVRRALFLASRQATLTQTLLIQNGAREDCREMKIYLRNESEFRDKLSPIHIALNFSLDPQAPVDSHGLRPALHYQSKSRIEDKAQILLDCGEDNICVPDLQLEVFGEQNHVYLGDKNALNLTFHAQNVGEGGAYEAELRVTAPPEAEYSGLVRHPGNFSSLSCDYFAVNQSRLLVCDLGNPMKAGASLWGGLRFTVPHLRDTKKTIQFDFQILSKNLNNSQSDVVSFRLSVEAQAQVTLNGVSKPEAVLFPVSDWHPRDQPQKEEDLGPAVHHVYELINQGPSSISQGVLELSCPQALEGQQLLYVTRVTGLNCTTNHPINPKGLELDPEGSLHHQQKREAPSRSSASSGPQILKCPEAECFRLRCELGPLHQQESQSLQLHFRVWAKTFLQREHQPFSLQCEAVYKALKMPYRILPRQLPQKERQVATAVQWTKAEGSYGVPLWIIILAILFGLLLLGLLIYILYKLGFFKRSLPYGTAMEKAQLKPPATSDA
UniProt P08648, sequence (P05556 21-798, chain 2 of 2, further chain): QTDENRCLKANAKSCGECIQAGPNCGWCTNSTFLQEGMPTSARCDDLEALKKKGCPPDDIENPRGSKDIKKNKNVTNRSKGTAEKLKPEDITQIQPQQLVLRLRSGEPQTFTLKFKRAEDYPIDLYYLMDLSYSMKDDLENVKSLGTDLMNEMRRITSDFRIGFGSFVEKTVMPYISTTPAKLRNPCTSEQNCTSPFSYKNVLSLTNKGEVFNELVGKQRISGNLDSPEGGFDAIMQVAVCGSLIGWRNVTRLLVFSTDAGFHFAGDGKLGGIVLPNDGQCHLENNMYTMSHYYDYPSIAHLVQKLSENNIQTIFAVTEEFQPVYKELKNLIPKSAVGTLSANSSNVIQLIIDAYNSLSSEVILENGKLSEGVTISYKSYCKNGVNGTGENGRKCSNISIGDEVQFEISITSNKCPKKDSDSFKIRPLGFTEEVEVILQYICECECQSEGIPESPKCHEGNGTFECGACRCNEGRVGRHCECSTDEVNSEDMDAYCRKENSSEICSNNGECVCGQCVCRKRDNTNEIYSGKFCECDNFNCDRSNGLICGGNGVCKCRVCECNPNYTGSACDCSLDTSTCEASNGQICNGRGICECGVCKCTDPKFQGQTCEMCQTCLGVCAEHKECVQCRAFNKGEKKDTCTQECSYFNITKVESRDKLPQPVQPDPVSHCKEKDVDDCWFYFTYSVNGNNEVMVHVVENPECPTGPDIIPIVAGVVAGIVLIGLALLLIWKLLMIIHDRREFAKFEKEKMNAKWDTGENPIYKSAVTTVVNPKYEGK

Molecule: osteopontin: soluble secretory phosphoprotein, ligand of αvβ3
Effect on NO production/accumulation [1]: inhibited | Inhibition of PGE2 production relative to nitric oxide production (chondrocytes): equally inhibit

Molecule: IL-1β: cytokine used as positive control, 1 ng/ml
Effect on PGE2 production [1]: augmented | Effect on NO production/accumulation [1]: augmented | Nitrite [1]: 17.3 ± 2.4^a μM | PGE2 [1]: 29.6 ± 7.2^c ng/ml | Effect on NO and PGE2 (inflammatory mediator) production, substance added as modulator ([2]; primary bovine chondrocytes): up-regulation

IL-1β, human OA-affected cartilage explants, 72 h, 0.5 µg/ml JBS5 (pg/ml per 100 mg cartilage) [3]: 87.6 | IL-6, human OA-affected cartilage explants, 72 h, 0.5 µg/ml JBS5 (ng/ml per 100 mg cartilage) [3]: 17.7 | IL-8, human OA-affected cartilage explants, 72 h, 0.5 µg/ml JBS5 (ng/ml per 100 mg cartilage) [3]: 17.7 | Nitrite, human OA-affected cartilage explants, 72 h, 0.5 µg/ml JBS5 (µM per 100 mg cartilage) [3]: 12.7 | PGE2, human OA-affected cartilage explants, 72 h, 0.5 µg/ml JBS5 (ng/ml per 100 mg cartilage) [3]: 19.1
Molecule: JBS5 monoclonal antibody

Molecule: CNC(=N)NCCC[C@H](N)C(=O)O [NMMA]
Effect on PGE2 production [1]: augmented | Effect on NO production/accumulation [1]: inhibition | Nitrite [1]: 0.8 ± 0.1^c μM | PGE2 [1]: 18.4 ± 0.8^c ng/ml

B1: sIL-1RII: recombinant soluble type II IL-1 receptor cloned from human neutrophils, released from Sf9 insect cells (protein)
chain: FTLQPAAHTGAARSCRFRGRHYKREFRLEGEPVALRCPQVPYWLWASVSPRINLTWHKNDSARTVPGEEETRMWAQDGALWLLPALQEDSGTYVCTTRNASYCDKMSIELRVFENTDAFLPFISYPQILTLSTSGVLVCPDLSEFTRDKTDVKIQWYKDSLLLDKDNEKFLSVRGTTHLLVHDVALEDAGYYRCVLTFAHEGQQYNITRSIELRIKKKKEETIPVIISPLKTISASLGSRLTIPCKVFLGTGTPLTTMLWWTANDTHIESAYPGGRVTEGPRQEYSENNENYIEVPLIFDPVTREDLHMDFKCVVHNTLSFQTLRTTVKE
Effect on production of IL-1, nitric oxide, PGE2, IL-6, IL-8 and MMPs ([1]; human arthritis affected cartilage, ex vivo, in the presence or absence of IL-1): inhibits | Effect on IL-1β and JBS5 monoclonal antibody induced NO and PGE2 production ([1]; osteoarthritis cartilage explants, FIG. 1b): inhibited significantly | Effect on IL-1β induced accumulation of NO and PGE2 ([2]; preincubation of cells for fifteen minutes): blocked | Effect on anti-αvβ3 monoclonal antibody induced production of NO and PGE2 ([2]; preincubation of cells for fifteen minutes, inducer is JBS5): blocked
